Reference: patent US8906868B2, “Aminoglycoside derivatives” (Rempex Pharmaceuticals, Inc., priority 2010, dated 2014)
≈ marks a conversion by molar mass, not a printed value. Where two headings read alike, the source gives them in different places.

What was measured:
ECM6003 rmtB = assay: microbe, parasite or virus in culture; format: cell-based, Escherichia coli
Protocol: (§1) To compare microbiological activity of the test compounds, minimum inhibitory concentrations (MIC.s) were determined. Antibiotic MICs were obtained using the broth microdilution method according to Clinical and Laboratory Standards Institute (CLSI) approved guidelines (Methods for dilution antimicrobial susceptibility tests for bacteria that grow aerobically; approved standard—7th ed. CLSI document M7-A7. Clinical and Laboratory Standards Institute, Wayne, Pa., incorporated herein by reference in its entirety). Antibiotics were dissolved as specified by CLSI (Performance standards for antimicrobial susceptibility testing; Seventeenth informational supplement. CLSI document M100-S17. Clinical and Laboratory Standards Institute, Wayne, Pa., incorporated herein by reference in its entirety), and were serially diluted 2-fold in cation adjusted Mueller Hinton Broth (CaMHB) at 2× concentration. Bacterial inoculums were prepared in CaMHB by suspension of a colony from an agar plate that was prepared the previous day to obtain a final concentration of 5×10^5CFU/ml. The plates were incubated for 18 hours at 35° C. […] MIC.s were determined by reading the turbidity of plate wells using a SpectraMax Plus384 plate reader (Molecular Devices, Sunnyvale, Calif., USA) at 600 nm and were confirmed by visual inspection.
(§2) Activity of the test compounds was determined using QC strains and strains with known aminoglycoside resistance mechanisms (TABLE 3). This specific panel contained strains expressing enzymes that covalently modify N2″, N3 and N3′ positions.
The panel also contained a strain expressing ribosomal RNA methylase, RmtB.

ECM6006 aph(3′)-III = assay: microbe, parasite or virus in culture; format: cell-based, Escherichia coli
Protocol: as §1, §2

ECM6009 aac(3)-II = assay: microbe, parasite or virus in culture; format: cell-based, Escherichia coli
Protocol: as §1, §2

ECM6010 ant(2″)-I = assay: microbe, parasite or virus in culture; format: cell-based, Escherichia coli
Protocol: as §1, §2

ECM6011 aph(3′)-I = assay: microbe, parasite or virus in culture; format: cell-based, Escherichia coli
Protocol: as §1, §2

EC1002 aph(3′)-IV = assay: organism not typed; format: cell-based
Protocol: as §1, §2

EC1001 acc(6′)-Ib = assay: microbe, parasite or virus in culture; format: cell-based, Escherichia coli; conditions: Table 4
Protocol: as §1

[1] = system: ECM6007 aac(6′) + aph(2″); assay: microbe, parasite or virus in culture; format: cell-based, Escherichia coli; conditions: Table 4
Protocol: as §1

PAM3072 aac(6′)-II = assay: microbe, parasite or virus in culture; format: cell-based, Pseudomonas aeruginosa; conditions: Pseudomonas aeruginosa, Table 5; read-out: Compound MIC on Bacterial Strains: Pseudomonas aeruginosa PAM3072 aac(6′)-II
Protocol: as §1

PAM3073 aac(6′)-I = assay: microbe, parasite or virus in culture; format: cell-based, Pseudomonas aeruginosa; conditions: Pseudomonas aeruginosa, Table 5; read-out: Compound MIC on Bacterial Strains: Pseudomonas aeruginosa PAM3073 aac(6′)-I
Protocol: as §1

[2] = system: Escherichia coli (ATCC 25922); assay: MIC, broth microdilution; conditions: for MIC: Escherichia coli
[3] = system: Staphylococcus aureus (ATCC 29213); assay: MIC, broth microdilution; conditions: Staphylococcus aureus
[4] = system: Klebsiella pneumonia (ATCC 43816); assay: MIC, broth microdilution; conditions: Klebsiella pneumoniae, ATCC43816, read-out: Compound MIC on Bacterial Strains: K. pneumonia ATCC 43816
[5] = system: Pseudomonas aeruginosa (ATCC 27853); assay: MIC, broth microdilution; conditions: Pseudomonas aeruginosa
[6] = system: Acinetobacter baumannii (ATCC 19606); assay: MIC, broth microdilution; conditions: Acinetobacter baumannii, ATCC19606, read-out: Compound MIC on Bacterial Strains: A. baumannii ATCC 19606
ACM1005 ATCC 19004 = assay: MIC, broth microdilution; format: cell-based, Acinetobacter baumannii; conditions: Table 4
Protocol: as §1

ACM1006 acc(6′)-Ib = assay: microbe, parasite or virus in culture; format: cell-based, Acinetobacter baumannii; conditions: Table 4
Protocol: as §1

## NC[C@@H]1CCC(N)[C@@H](OC2C(O)C(O[C@H]3OC(CO)C(O)[C@H](N)C3O)[C@H](NC(=O)C3(O)CNNC3)C[C@@H]2N)O1 (some centres unmarked) [Compound 28]
ECM6003 rmtB; strain expressing ribosomal RNA methylase RmtB
  fold increased resistance conferred by RmtB: 8 fold

## CN[C@@H]1[C@@H](O)[C@@H](O[C@@H]2[C@@H](O)[C@H](O[C@H]3O[C@H](CNCCO)CC[C@H]3N)[C@@H](N)C[C@H]2NC(=O)[C@@H](O)CNN)OC[C@]1(C)O [Compound 41, (S)—N-((1R,2S,3S,4R,5S)-5-amino-4-((2R,3R,6S)-3-amino-6-((2-hydroxyethylamino)methyl)tetrahydro-2H-pyran-2-yloxy)-2-((2R,3R,4R,5R)-3,5-dihydroxy-5-methyl-4-(methylamino)tetrahydro-2H-pyran-2-yloxy)-3-hydroxycyclohexyl)-3-hydrazinyl-2-hydroxypropanamide]
ECM6006 aph(3′)-III; Escherichia coli, read-out: Compound MIC on Bacterial Strains: ECM6006 aph(3′)-III
  MIC: > 8 µg/mL
ECM6009 aac(3)-II; Escherichia coli, read-out: Compound MIC on Bacterial Strains: ECM6009 aac(3)-II
  MIC: > 8 µg/mL
ECM6010 ant(2″)-I; Escherichia coli, read-out: Compound MIC on Bacterial Strains: ECM6010 ant(2″)-I
  MIC: 1 to 8 µg/mL (≈ 1.68 to 13.4 µM)
ECM6011 aph(3′)-I; Escherichia coli, read-out: Compound MIC on Bacterial Strains: ECM6011 aph(3′)-I
  MIC: 1 to 8 µg/mL (≈ 1.68 to 13.4 µM)
ECM6003 rmtB; Escherichia coli, Table 3, read-out: Compound MIC on Bacterial Strains: ECM6003 rmtB
  MIC: > 8 µg/mL
EC1002 aph(3′)-IV; read-out: Compound MIC on Bacterial Strains: EC1002 aph(3′)-IV
  MIC: 1 to 8 µg/mL (≈ 1.68 to 13.4 µM)
EC1001 acc(6′)-Ib; Escherichia coli, read-out: Compound MIC on Bacterial Strains: Escherichia coli EC1001 acc(6′)-Ib
  MIC: > 8 µg/mL
[1]; Escherichia coli, 18 h, read-out: Compound MIC on Bacterial Strains: Escherichia coli ECM6007 aac(6′) + aph(2″)
  MIC: 1 to 8 µg/mL
PAM3072 aac(6′)-II
  MIC: > 8 µg/mL
PAM3073 aac(6′)-I
  MIC: > 8 µg/mL
[2]; ATCC25922, read-out: Compound MIC on Bacterial Strains: E. coli ATCC 25922
  MIC: 1 to 8 µg/mL (≈ 1.68 to 13.4 µM)
[2]; ATCC25922, read-out: Compound MIC on Bacterial Strains: ECM6000 ATCC 25922
  MIC: 1 to 8 µg/mL (≈ 1.68 to 13.4 µM)
[2]; ATCC25922, read-out: Compound MIC on Bacterial Strains: Escherichia coli ECM6000 ATCC 25922
  MIC: 1 to 8 µg/mL (≈ 1.68 to 13.4 µM)
[3]; ATCC29213, read-out: Compound MIC on Bacterial Strains: S. aureus ATCC 29213, QC strain, Table 2
  MIC: 1 to 8 µg/mL (≈ 1.68 to 13.4 µM)
[3]; ATCC29213, read-out: Compound MIC on Bacterial Strains: Staphylococcus aureus SAM1000 ATCC 29213, Table 5
  MIC: 1 to 8 µg/mL (≈ 1.68 to 13.4 µM)
[4]
  MIC: 1 to 8 µg/mL (≈ 1.68 to 13.4 µM)
[5]; ATCC27853, read-out: Compound MIC on Bacterial Strains: P. aeruginosa ATCC 27853
  MIC: > 8 µg/mL
[5]; ATCC27853, read-out: Compound MIC on Bacterial Strains: Pseudomonas aeruginosa PAM3034 ATCC 27853
  MIC: > 8 µg/mL
[6]
  MIC: > 8 µg/mL

## CNC[C@@H]1CC[C@@H](N)[C@@H](O[C@H]2[C@H](O)[C@@H](O[C@H]3OC[C@](C)(O)[C@H](NC)[C@H]3O)[C@H](N)C[C@@H]2N)O1 [Micronomicin, reference compound]
ECM6006 aph(3′)-III
  Compound MIC on Bacterial Strains: ECM6006 aph(3′)-III: B (key: A: MIC of 1 μg/ml or less; B: MIC of greater than 1 μg/ml to 8 μg/ml; MIC of greater than 8 μg/ml)
ECM6009 aac(3)-II
  Compound MIC on Bacterial Strains: ECM6009 aac(3)-II: C (key: A: MIC of 1 μg/ml or less; B: MIC of greater than 1 μg/ml to 8 μg/ml; MIC of greater than 8 μg/ml)
ECM6010 ant(2″)-I
  Compound MIC on Bacterial Strains: ECM6010 ant(2″)-I: C (key: A: MIC of 1 μg/ml or less; B: MIC of greater than 1 μg/ml to 8 μg/ml; MIC of greater than 8 μg/ml)
ECM6011 aph(3′)-I
  Compound MIC on Bacterial Strains: ECM6011 aph(3′)-I: B (key: A: MIC of 1 μg/ml or less; B: MIC of greater than 1 μg/ml to 8 μg/ml; MIC of greater than 8 μg/ml)
ECM6003 rmtB; Table 3
  Compound MIC on Bacterial Strains: ECM6003 rmtB: C (MIC of greater than 8 μg/ml)
EC1002 aph(3′)-IV
  Compound MIC on Bacterial Strains: EC1002 aph(3′)-IV: A (key: A: MIC of 1 μg/ml or less; B: MIC of greater than 1 μg/ml to 8 μg/ml; MIC of greater than 8 μg/ml)
EC1001 acc(6′)-Ib
  Compound MIC on Bacterial Strains: Escherichia coli EC1001 acc(6′)-Ib: C (MIC of greater than 8 μg/ml)
[1]
  Compound MIC on Bacterial Strains: Escherichia coli ECM6007 aac(6′) + aph(2″): B (MIC of greater than 1 μg/ml to 8 μg/ml)
ACM1005 ATCC 19004
  Compound MIC on Bacterial Strains: Acinetobacter baumannii ACM1005 ATCC 19004: A (MIC of 1 μg/ml or less)
ACM1006 acc(6′)-Ib
  Compound MIC on Bacterial Strains: Acinetobacter baumannii ACM1006 acc(6′)-Ib: C (MIC of greater than 8 μg/ml)
[2]; Table 3
  Compound MIC on Bacterial Strains: ECM6000 ATCC 25922: A (MIC of 1 μg/ml or less)
[2]; Table 4
  Compound MIC on Bacterial Strains: Escherichia coli ECM6000 ATCC 25922: A (MIC of 1 μg/ml or less)
